US4929623A, “Benzothiazole derivative” (Eisai Co., Ltd., priority 1987, dated 1990)

Test system: generation of leukotriene C4 (LT) from sliced lung of guinea pig
Assay: Effect on generation of leukotriene C4 from sliced lung of guinea pig (passively sensitized, ovalbumin challenge)
Format: cell-based, guinea pig (male Hartley)
Conditions: 3 μM test compound, 10 min preincubation, ovalbumin 10 μg/ml, 15 min, 37° C.; for inhibition at 3 µM: Cavia porcellus, read-out: Percentage inhibition (leukotriene C4 (LTC4) liberation inhibition)
Experimental: Effect on generation of leukotriene C4 (LT) from sliced lung of guinea pig
An antiovalbumin guinea pig serum (1/10 dilution; 0.5 ml/100 g) was intravenously injected into a male Hartley guinea pig (300-350 g) for passive sensitization. 16 to 18 hr after the passive sensitization, the blood was removed by circulation of the Tyrode solution and the lung was extirpated. The extirpated lung was cut into small pieces having a size of 1 mm×1 mm×1 mm while cooling the lung with ice. The pieces were washed, and 150 mg of the pieces was suspended on 1.8 ml of the Tyrode solution, followed by incubation at 37° C. for 5 min. A 3 μM test compound (the compound of the present invention) solution was added thereto, followed by incubation for 10 min. An antigen solution (ovalbumin; a final concentration of 10 μg/ml) was added thereto, followed by incubation for additional 15 min. The mixture was filtered through a nylon mesh. 100 μl of the filtrate was subjected to determination of the amount of leukotriene C4 (LTC4) with an RzA kit.
The percentage leukotriene C4 (LTC4) liberation inhibition of each compound (indicated by compound No. used in the Examples which will be described later) is shown in Table 1.

Q: Cc1c(O)c(C)c2sc(N)nc2c1C [Compound 8, 6-hydroxy-2-amino-4,5,7-trimethylbenzothiazole] was tested. Which inhibition at 3 µM did it give?
A: 75%

Q: How did the inhibition at 3 µM turn out when Cc1c(O)c(C(C)C)c2sc(N)nc2c1C [Compound 9] was run?
A: 36%

Q: With CC(C)c1cc2nc(N)sc2c(C(C)C)c1O [Compound 10] as the compound, how does the inhibition at 3 µM read?
A: 78%

Q: Which inhibition at 3 µM does the source give for Nc1nc2cc(Br)c(O)c(Br)c2s1 [Compound 13] here?
A: 35%

Q: With Nc1nc2c(cc(O)c3ncccc32)s1 [Compound 17] as the compound, how does the inhibition at 3 µM read?
A: 35%

Q: How did the inhibition at 3 µM turn out when Cc1ccc2sc(N)nc2c1O [Compound 19] was run?
A: 36%

Q: How did the inhibition at 3 µM turn out when Nc1nc2c(O)c(Cl)ccc2s1 [Compound 20] was run?
A: 33%

Q: Nc1nc2c(O)c(Br)cc(Br)c2s1 [Compound 21] was tested. Which inhibition at 3 µM did it give?
A: 48%

Q: With Cc1c(O)c(C(C)(C)C)cc2nc(N)sc12 [Compound 22] as the compound, how does the inhibition at 3 µM read?
A: 61%

Q: How did the inhibition at 3 µM turn out when Cc1c(O)c(C)c2sc(NCC(C)C)nc2c1C [Compound 24] was run?
A: 95%

Q: For Cc1c(O)c(C)c2sc(NCC3CCCCC3)nc2c1C [Compound 25], which inhibition at 3 µM is on record?
A: 36%

Q: Which inhibition at 3 µM does the source give for CCNc1nc2c(C)c(C)c(O)c(C)c2s1 [Compound 26] here?
A: 85%

Q: Cc1c(O)c(C)c2sc(NCc3ccc(N(C)C)cc3)nc2c1C [Compound 28] was tested. Which inhibition at 3 µM did it give?
A: 34%

Q: Which inhibition at 3 µM does the source give for Cc1c(O)c(C)c2sc(NCc3ccc(NS(C)(=O)=O)cc3)nc2c1C [Compound 29] here?
A: 43%

Q: Cc1c(O)c(C)c2sc(NCc3ccc(S(C)(=O)=O)cc3)nc2c1C [Compound 30] was tested. Which inhibition at 3 µM did it give?
A: 79%

Q: Which inhibition at 3 µM does the source give for Cc1c(O)c(C)c2sc(NCc3ccc(S(=O)(=O)N(CCO)CCO)cc3)nc2c1C [Compound 31] here?
A: 62%

Q: Which inhibition at 3 µM does the source give for CCN(CC)S(=O)(=O)c1ccc(CNc2nc3c(C)c(C)c(O)c(C)c3s2)cc1 [Compound 32] here?
A: 44%

Q: Cc1c(O)c(C)c2sc(NCc3ccc(S(=O)(=O)NCCO)cc3)nc2c1C [Compound 33] was tested. Which inhibition at 3 µM did it give?
A: 46%

Q: For Cc1c(O)c(C)c2sc(NCc3ccc(S(N)(=O)=O)cc3)nc2c1C [Compound 34, 6-hydroxy-2-(4-sulfamoylbenzylamino)-4,5,7-trimethyl-benzothiazole], which inhibition at 3 µM is on record?
A: 70%

Q: How did the inhibition at 3 µM turn out when CCN(Cc1ccc(S(N)(=O)=O)cc1)c1nc2c(C)c(C)c(O)c(C)c2s1 [Compound 35] was run?
A: 68%

Q: For CC(C)c1cc2nc(NCc3ccc(S(N)(=O)=O)cc3)sc2c(C(C)C)c1O [Compound 37], which inhibition at 3 µM is on record?
A: 39%

Q: CCN(Cc1ccc(S(N)(=O)=O)cc1)c1nc2cc(C(C)C)c(O)c(C(C)C)c2s1 [Compound 40] was tested. Which inhibition at 3 µM did it give?
A: 32%

Q: With Cc1c(O)c(C)c2sc(NC(=O)c3cccnc3)nc2c1C [Compound 51] as the compound, how does the inhibition at 3 µM read?
A: 56%

Q: For Cc1c(O)c(C)c2sc(NC(=O)C3CCCCC3)nc2c1C [Compound 52], which inhibition at 3 µM is on record?
A: 62%

Q: CC(=O)Nc1nc2c(C)c(C)c(O)c(C)c2s1 [Compound 53] was tested. Which inhibition at 3 µM did it give?
A: 69%

Q: How did the inhibition at 3 µM turn out when Cc1c(O)c(C)c2sc(NC(=O)c3ccccc3)nc2c1C [Compound 54] was run?
A: 58%

Q: For Cc1c(O)c(C)c2sc(NC(=O)CN(C)C)nc2c1C [Compound 57], which inhibition at 3 µM is on record?
A: 42%

Q: With Cc1c(O)c(C)c2sc(NC(=O)N(C)C)nc2c1C [Compound 58] as the compound, how does the inhibition at 3 µM read?
A: 64%

Q: Which inhibition at 3 µM does the source give for CCOC(=O)Nc1nc2c(C)c(C)c(O)c(C)c2s1 [Compound 59] here?
A: 71%

Q: With CCOC(=O)C(=O)Nc1nc2c(C)c(C)c(O)c(C)c2s1 [Compound 60] as the compound, how does the inhibition at 3 µM read?
A: 36%

Q: With Cc1c(O)c(C)c2sc(NC(=O)C(=O)O)nc2c1C [Compound 61] as the compound, how does the inhibition at 3 µM read?
A: 36%

Q: For CCOC(=O)CCC(=O)Nc1nc2c(C)c(C)c(O)c(C)c2s1 [Compound 64], which inhibition at 3 µM is on record?
A: 32%

Q: With CC(C)c1cc2nc(NC(=O)N(C)C)sc2c(C(C)C)c1O [Compound 68] as the compound, how does the inhibition at 3 µM read?
A: 70%

Q: Which inhibition at 3 µM does the source give for Cc1c(O)c(C)c2sc(NS(C)(=O)=O)nc2c1C [Compound 69] here?
A: 42%

Q: With Cc1c(O)c(C)c2sc(NS(=O)(=O)C(C)C)nc2c1C [Compound 70] as the compound, how does the inhibition at 3 µM read?
A: 30%

Q: With Cc1c(O)c(C)c2sc(NS(=O)(=O)c3ccccc3)nc2c1C [Compound 71] as the compound, how does the inhibition at 3 µM read?
A: 53%

Q: With CC(C)c1cc2nc(NS(=O)(=O)N(C)C)sc2c(C(C)C)c1O [Compound 75] as the compound, how does the inhibition at 3 µM read?
A: 50%

Q: How did the inhibition at 3 µM turn out when CC(C)c1c(O)c(C(C)C)c2sc(N)nc2c1Cl [Compound 76] was run?
A: 72%

Q: How did the inhibition at 3 µM turn out when NS(=O)(=O)c1ccc(CNc2nc3cc(Br)c(O)c(Br)c3s2)cc1 [Compound 86, 6-hydroxy-2-(4-sulfamoylbenzylamino)-5,7-dibromobenzothiazole] was run?
A: 31%

Q: NS(=O)(=O)c1ccc(CNc2nc3c(O)c(Br)cc(Br)c3s2)cc1 [Compound 87] was tested. Which inhibition at 3 µM did it give?
A: 32%

Q: For CCOC(=O)CCCNc1nc2c(C)c(C)c(O)c(C)c2s1 [Compound 88], which inhibition at 3 µM is on record?
A: 79%

Q: Which inhibition at 3 µM does the source give for Cc1c(O)c(C)c2sc(N3CCCC3=O)nc2c1C [Compound 90] here?
A: 41%

Q: Cc1c(O)c(C)c2sc(NCCCC(=O)NC3CCCCC3)nc2c1C [Compound 91] was tested. Which inhibition at 3 µM did it give?
A: 53%

Q: Cc1c(O)c(C)c2sc(N)nc2c1C [Compound 92] was tested. Which “Percentage inhibition (leukotriene C4 (LTC4) liberation inhibition)” value (3 µM) did it give?
A: 64%

Q: For CNc1nc2c(C)c(C)c(O)c(C)c2s1 [Compound 93], which inhibition at 3 µM is on record?
A: 83%

Q: Cc1c(O)c(C)c2sc(N(C)C)nc2c1C [Compound 94] was tested. Which inhibition at 3 µM did it give?
A: 79%

Q: How did the inhibition at 3 µM turn out when CCCCCNc1nc2c(C)c(C)c(O)c(C)c2s1 [Compound 95] was run?
A: 72%

Q: Which inhibition at 3 µM does the source give for CC(C)=CCNc1nc2c(C)c(C)c(O)c(C)c2s1 [Compound 96] here?
A: 77%

Q: For Cc1c(O)c(C)c2sc(Nc3ccc(O)cc3)nc2c1C [Compound 98], which inhibition at 3 µM is on record?
A: 60%

Q: With COc1ccc(Nc2nc3c(C)c(C)c(O)c(C)c3s2)cc1 [Compound 99] as the compound, how does the inhibition at 3 µM read?
A: 43%

Q: For Cc1c(O)c(C)c2sc(Nc3ccc(C(=O)O)cc3)nc2c1C [Compound 101, 6-hydroxy-2-(4-carboxylphenylamino)-4,5,7-trimethylbenzothiazole], which inhibition at 3 µM is on record?
A: 37%

Q: How did the inhibition at 3 µM turn out when Cc1c(O)c(C)c2sc(Nc3ccc(S(N)(=O)=O)cc3)nc2c1C [Compound 103] was run?
A: 48%

Q: For Cc1c(O)c(C)c2sc(Nc3cc(Cl)c(O)c(Cl)c3)nc2c1C [Compound 106], which inhibition at 3 µM is on record?
A: 49%

Q: With Cc1c(O)c(C)c2sc(Nc3ccc(CCC(=O)O)cc3)nc2c1C [Compound 108] as the compound, how does the inhibition at 3 µM read?
A: 30%

Q: With COc1c(O)c(C)c2sc(N)nc2c1OC [Compound 110] as the compound, how does the inhibition at 3 µM read?
A: 41%

Q: CC(C)c1cc2nc(Nc3ccc(C(=O)O)cc3)sc2c(C(C)C)c1O [Compound 113, 6-hydroxy-2-(4-carboxylphenylamino)-5,7-diisopropylbenzothiazole] was tested. Which inhibition at 3 µM did it give?
A: 49%

Q: For CC(C)c1cc2nc(Nc3ccccc3)sc2c(C(C)C)c1O [Compound 115], which inhibition at 3 µM is on record?
A: 39%

Q: With CC(C)c1cc2nc(Nc3ccc(S(N)(=O)=O)cc3)sc2c(C(C)C)c1O [Compound 122] as the compound, how does the inhibition at 3 µM read?
A: 34%

Q: CC(C)c1cc2nc(N(CCO)CCO)sc2c(C(C)C)c1O [Compound 123] was tested. Which inhibition at 3 µM did it give?
A: 71%

Q: With CC(C)c1cc2nc(N3CCOCC3)sc2c(C(C)C)c1O [Compound 124] as the compound, how does the inhibition at 3 µM read?
A: 72%

Q: How did the inhibition at 3 µM turn out when CC(C)c1cc2nc(NCc3ccccn3)sc2c(C(C)C)c1O [Compound 126, 6-hydroxy-2-(2-pyridylmethylamino)-5,7-diisopropylbenzothiazole] was run?
A: 66%

Q: For CC(C)c1cc2nc(N3CCC(O)CC3)sc2c(C(C)C)c1O [Compound 128], which inhibition at 3 µM is on record?
A: 60%

Q: How did the inhibition at 3 µM turn out when Cc1c(O)c(C)c2sc(NCc3ccccc3)nc2c1C [Compound 134] was run?
A: 88%

Q: How did the inhibition at 3 µM turn out when Cc1c(O)c(C)c2sc(NCc3ccc(C(=O)O)cc3)nc2c1C [Compound 135] was run?
A: 41%

Q: COC(=O)c1ccc(CNc2nc3c(C)c(C)c(O)c(C)c3s2)cc1 [Compound 136] was tested. Which inhibition at 3 µM did it give?
A: 67%

Q: For Cc1c(O)c(C)c2sc(NCc3ccc(Cl)cc3Cl)nc2c1C [Compound 137], which inhibition at 3 µM is on record?
A: 40%

Q: Cc1c(O)c(C)c2sc(NCc3ccc(C(N)=O)cc3)nc2c1C [Compound 141] was tested. Which inhibition at 3 µM did it give?
A: 53%
